On the set-up of data set [1]: method as in PMID 29636360. As to conditions: across a wide pH range; cited from earlier work.
A further data set has as its system PI3K/mTOR. More on the design: method as in PMID 29636360. As to conditions: at doses ≥150 mg; cited from earlier work.
The conditions of data set [2]: cited from earlier work.
In the next data set the test system is advanced malignancies. In words: Antitumor activity, tumor response by RECIST v1.1. The data set is classed as in vivo, human. How it is done: Tumor response was assessed by computed tomography scans or magnetic resonance imaging according to RECIST v1.1 [18] at baseline and thereafter every 6 weeks until patients discontinued from the study. The assessment included all patients who received ≥1 dose of study drug.

The next data set concerns CYP3A4. More on the design: method as in PMID 29636360. The settings on record: drug-drug interaction analysis; cited from earlier work.
Data set [3] deals with PI3K/mTOR kinase activity. The data set is described as follows: Pharmacodynamics: fasting glucose and C-peptide change from baseline. The data set is classed as in vivo, human. As to conditions: baseline to 4 h post dose. Here is the method:
The primary objective of this study was to evaluate the tolerability and safety of LY3023414 up to the global recommended dose in Japanese patients with advanced malignancies. The secondary objectives were to evaluate PK and to document antitumor activity of LY3023414. The exploratory objective was to evaluate pharmacodynamic (PD) effects of LY3023414 on PI3K/mTOR kinase activity.
For PK assessment, blood samples were collected at pre dose and 0.5, 1, 2, 4, 8, and 12 h post dose on 2 occasions: (i) on Day 1 of Cycle 1 (single dose), and (ii) on Day 15 of Cycle 1 (multiple dose). For PD assessment, blood samples were collected at pre dose and 0.5, 1, 2, and 4 h post dose on 2 occasions: (i) on Day 1 of Cycle 1 (single dose), and (ii) on Day 15 of Cycle 1 (multiple dose).
Pharmacodynamic parameters (glucose and C-peptide) were analyzed for all patients. The mean percentage change from baseline against nominal time was provided for glucose and C-peptide.

This is an account of results in article PMC7575488, “Phase 1 dose-escalation study of a novel oral PI3K/mTOR dual inhibitor, LY3023414, in patients with cancer” (Investigational New Drugs, 2020).

As for `CO[C@@H](C)Cn1c(=O)n(C)c2cnc3ccc(-c4cncc(C(C)(C)O)c4)cc3c21` [LY3023414], in data set [1], the Solubility result was “good solubility”. Also, the Target inhibition with PI3K/mTOR is on record as not below 90%. Besides, the Frequency of stomatitis in data set [2] (200-mg dose, global study) is reported as 33.3%. Further, the Disease control rate in data set [2] (global Phase 1 study) was 34.0%; with advanced malignancies (5 of 9 evaluable patients), 55.6%. Moreover, the “Interstitial lung disease (ILD)” value in data set [2] (global study) was “None of the patients experienced ILD”. The “Safe and tolerable dose as monotherapy (global recommended dose)” value in data set [2] (human, in vivo) was “up to 200 mg”. The “Best overall response of stable disease” value in the data set with advanced malignancies (150 mg) was 3 patients; in the data set on advanced malignancies (200 mg), 2 patients; with advanced malignancies (both dose levels, 9 evaluable patients), 5 patients. Besides, in the data set with advanced malignancies (200 mg BID), the “Progressive disease as best response” value came to 4 patients. For the same compound, in the data set on advanced malignancies (9 evaluable patients, RECIST v1.1), the “Complete response (CR) or partial response (PR)” value is “No complete response (CR) or partial response (PR)”. Also, the “Inhibition of the metabolic clearance of drugs metabolized through CYP3A4” value with CYP3A4 was “weak inhibitor”. For the same compound, the figures for the “C-peptide, mean percentage change from baseline” value in data set [3] (150 mg) and in data set [3] (200 mg) were 106.0% and 165.4%, respectively. For the same compound, the “Glucose, mean percentage change from baseline” value in data set [3] (150 mg) turned out to be 23.6%; in data set [3] (200 mg), 24.7%.
